Results: patent EP2975033A1, “Improved cysteine-protease inhibitors” (Universitat Jaume I, priority 2014, dated 2016)
In brackets after ≈: the same amount, converted by molar mass. Several values for one entry are separate records, joined by “and”; a condition that tells them apart may be missing. Equal values may be shown once. Read-outs that look alike come from different tables or passages of the source.

Legend:
Cathepsin B (human) = target: T1, Cathepsin B (human) (Homo sapiens, UniProt P07858); experiment: Protease assay, fluorogenic substrate Z-Phe-Arg-AMC: Cathepsin B; format: biochemical; conditions: CB=CathepsinB; for IC50: 25 °C, pH 6.5, 100 µM substrate, read-out: CBIC50micM
T1 construct: Cathepsin B (human liver) Calbiochem; purchased Calbiochem; host or cells: human liver (tissue-derived)
Source text: (§1) 2.1.1. Protease Assays as shown in tables 1 and 2: Cathepsin L (human), Cathepsin B (human), Rhodesain (Trypanosoma brucei rhodesiense), Falcipain 2 (Plasmodium falciparum)
(§2) Enzyme assays used to identify inhibitors of the target cysteine proteases. The effect is detected measuring fluorescence increase due to hydrolysis of fluorogenic substrates by the target enzymes in absence and presence of potential inhibitors.
(§3) • a. Proteins (enzymes): • Cathepsin L (human liver) Calbiochem • Cathepsin B (human liver) Calbiochem • Rhodesain: recombinantly expressed according to ref.: Caffrey, C. R.; Hansell, E.; Lucas, K. D.; Brinen, L. S.; Hernandez, A. A.; Cheng, J.; Gwaltney, S. L., II; Roush, W. R.; Stierhof, Y. D.; Bogyo, M.; Steverding, D.; McKerrow, J. H. Active site mapping, biochemical properties and subcellular localization of rhodesain, the major cysteine protease of Trypanosoma • Falcipain 2: recombinantly expressed according to ref.: Pandey, K. C.; Wang, S. X.; Sijwali, P. S.; Lau, A. L.; McKerrow, J. H.; Rosenthal, P. J. The Plasmodium falciparum cysteine protease falcipain-2 captures its substrate, hemoglobin, via a unique motif. Proc. Natl. Acad. Sci. U.S.A. 2005, 102, 9138-9143. • b. Buffers: • Cathepsin B: 50 mM Tris-Puffer pH 6.5 mit 2 mM DTT, 5 mM EDTA, 200 mM NaCl, 0.005% Brij35 • Cathepsin L: 50 mM Tris-Puffer pH 6.5 mit 2 mM DTT, 5 mM EDTA, 200 mM NaCl, 0.005% Brij35 • Rhodesain: 50 mM Acetat-Puffer pH 5.5 mit 5 mM DTT, 5 mM EDTA, 200 mM NaCl, 0.005% Brij35 • Falcipain 2: 50 mM Acetat-Puffer pH 5.5 mit 5 mM DTT, 5 mM EDTA, 200 mM NaCl, 0.005% Brij35 • c. Substrates: • Cathepsin L: 6,25 µM Z-Phe-Arg-7-amino-4-methylcumarin, HCl von Bachem, Ex 380 nm, Em 460 nm • Cathepsin B: 100 µM Z-Phe-Arg-7-amino-4-methylcumarin, HCl von Bachem, Ex 380 nm, Em 460 nm • Rhodesain: 10µM Z-Phe-Arg-7-amino-4-methylcumarin, HCl von Bachem, Ex 380 nm, Em 460 nm • Falcipain 2: 25µM Z-Phe-Arg-7-amino-4-methylcumarin, HCl von Bachem, Ex 380 nm, Em 460 nm • Reference substance(s)/positive control(s): E64 • d. Solvent for inhibitors and substrates: DMSO 99,5% (GC) DC4540, Sigma • e. Measurement device: Tecan Fluorescence spectrophotometer infinite F200 Pro • f. Well plates: 96 well plates, Lia-Plate White, Greiner bio-one, flat bottom, high binding • g. Methodology: Substrates and inhibitor stock solutions are prepared in DMSO and diluted with the respective assay buffer (final DMSO concentration: […]). Enzyme stock solutions are diluted with assay buffer to yield a fluorescence increase of dF/min ≈ _20. Total volume: 200 µL (180 µL of assay buffer, 5 µL of enzyme solution, 10 µL of DMSO or inhibitor solution, 5 µL of substrate solution). Assays are started by the addition of substrate solution. Fluorescence increase is detected over a period of 10 - 30 min, depending on time dependent (30 min) or non-time dependent (10 min) inhibition. • h. Temp: 25 °C • i. DATA-[…] • Software: Grafit 5.013 • Ki values are calculated from IC50 values (obtained by the 4-parameter IC50 equation) using the Chen-Prusoff equation: Ki=IC50/(1 + [S]/Km)
(§4) In vitro inhibition of cysteine-proteases cruzain (CR) (Trypanosoma cruzi (T. cruzi)), rhodesain (RD) (T. brucei), cathepsin B (CB), falcipain (FP2) (Plasmodium falciparum) and cathepsin L (CL) was assessed by quantification of the resulting fluorescence emission of the proteolytic breakdown of synthetic compound Z-Phe-Arg-AMC (Bachem). The results of this determination are shown in tables 1 and 2 illustrated above.

Cathepsin L (human) = target: T2, Cathepsin L (human) (Homo sapiens, UniProt P07711); experiment: Protease assay, fluorogenic substrate Z-Phe-Arg-AMC: Cathepsin L; format: biochemical
T2 construct: Cathepsin L (human liver) Calbiochem; purchased Calbiochem; host or cells: human liver (tissue-derived)
T2 sequence (P07711 114-333): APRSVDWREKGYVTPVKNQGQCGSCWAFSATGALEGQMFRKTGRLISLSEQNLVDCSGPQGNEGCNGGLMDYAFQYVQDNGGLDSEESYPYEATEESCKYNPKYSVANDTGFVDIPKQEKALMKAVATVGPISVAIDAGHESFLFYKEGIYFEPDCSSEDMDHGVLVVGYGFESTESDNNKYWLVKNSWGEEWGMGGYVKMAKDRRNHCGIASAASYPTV
Source text: as §1, §2, §3, §4

Falcipain 2 = target: T3, Falcipain 2 (Plasmodium falciparum, UniProt Q8I6U4); experiment: Protease assay, fluorogenic substrate Z-Phe-Arg-AMC: Falcipain 2; format: biochemical; conditions: FP2=Falcipain2
T3 construct: made in house
T3 sequence (Q8I6U4 244-484): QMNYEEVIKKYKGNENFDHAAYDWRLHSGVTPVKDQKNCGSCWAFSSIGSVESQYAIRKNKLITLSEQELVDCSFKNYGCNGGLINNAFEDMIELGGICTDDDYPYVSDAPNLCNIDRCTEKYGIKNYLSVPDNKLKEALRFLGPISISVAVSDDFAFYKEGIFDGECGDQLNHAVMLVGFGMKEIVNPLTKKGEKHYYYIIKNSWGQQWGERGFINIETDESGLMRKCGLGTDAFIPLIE
Source text: as §1, §2, §3, §4

Rhodesain = target: T4, Rhodesain (Trypanosoma brucei rhodesiense, UniProt Q95PM0); experiment: Protease assay, fluorogenic substrate Z-Phe-Arg-AMC: Rhodesain; format: biochemical; conditions: for IC50: RD=Rhodesain, 25 °C, pH 5.5, 10µM substrate
T4 construct: made in house
T4 sequence (Q95PM0 entry or part of it): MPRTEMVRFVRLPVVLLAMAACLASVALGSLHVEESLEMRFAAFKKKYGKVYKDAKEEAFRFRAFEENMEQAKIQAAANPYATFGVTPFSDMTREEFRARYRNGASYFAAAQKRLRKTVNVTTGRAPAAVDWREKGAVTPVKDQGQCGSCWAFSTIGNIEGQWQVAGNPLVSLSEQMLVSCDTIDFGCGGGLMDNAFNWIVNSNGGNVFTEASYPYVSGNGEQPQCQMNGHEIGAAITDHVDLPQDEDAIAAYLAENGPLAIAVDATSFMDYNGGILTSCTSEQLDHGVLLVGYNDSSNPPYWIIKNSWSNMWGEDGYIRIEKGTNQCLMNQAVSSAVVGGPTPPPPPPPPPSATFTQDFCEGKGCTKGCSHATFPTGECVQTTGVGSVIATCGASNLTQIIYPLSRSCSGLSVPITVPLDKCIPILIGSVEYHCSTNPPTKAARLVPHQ
Source text: as §1, §2, §3, §4

cruzain (CR) = cruzain (CR) (Trypanosoma cruzi, UniProt P25779); experiment: In vitro inhibition of cruzain, fluorescence of Z-Phe-Arg-AMC breakdown; format: biochemical
Sequence of cruzain (CR) (P25779 123-467): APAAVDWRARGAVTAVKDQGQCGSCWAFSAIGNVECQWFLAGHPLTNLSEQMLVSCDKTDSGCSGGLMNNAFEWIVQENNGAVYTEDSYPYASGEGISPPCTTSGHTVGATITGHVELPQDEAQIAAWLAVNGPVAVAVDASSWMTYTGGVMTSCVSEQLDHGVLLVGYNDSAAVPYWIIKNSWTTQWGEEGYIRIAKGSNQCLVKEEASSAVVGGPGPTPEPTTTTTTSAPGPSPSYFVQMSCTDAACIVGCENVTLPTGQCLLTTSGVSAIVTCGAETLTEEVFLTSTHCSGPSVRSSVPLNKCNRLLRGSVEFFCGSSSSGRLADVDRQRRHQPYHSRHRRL
Procedure: as §2, §4

[1] = test system: L. donovani strain MHOM/ET/67/L82; experiment: Activity against L. donovani axenic amastigotes (Alamar Blue); format: cell-based
Procedure: For all the susceptibility assays with parasites and cells, each drug was tested in duplicate and each assay was repeated at least once. • a. Activity against Trypanosoma brucei rhodesiense STIB900. This stock was isolated in 1982 from a human patient in Tanzania and after several mouse passages cloned and adapted to axenic culture conditions (Baltz et al 1985) Minimum Essential Medium (50 µl) supplemented with 25 mM HEPES, 1g/l additional glucose, 1% MEM non-essential amino acids (100x), 0.2 mM 2-mercaptoethanol, 1 mM Na-pyruvate and 15% heat inactivated horse serum was added to each well of a 96-well microtiter plate. Serial drug dilutions of eleven 3-fold dilution steps covering a range from 100 to 0.002 µg/ml were prepared. Then 4x10^3 bloodstream forms of T. b. rhodesiense STIB 900 in 50 µl was added to each well and the plate incubated at 37 °C under a 5 % CO2 atmosphere for 70 h. 10 µl Alamar Blue (resazurin, 12.5 mg in 100 ml double-distilled water) was then added to each well and incubation continued for a further 2-4 h (Raz et al 1997). Then the plates were read with a Spectramax Gemini XS microplate fluorometer (Molecular Devices Cooperation, Sunnyvale, CA, USA) using an excitation wave length of 536 nm and an emission wave length of 588 nm. The IC50 values were calculated by linear regression (Huber 1993) from the sigmoidal dose inhibition curves using SoftmaxPro software (Molecular Devices Cooperation, Sunnyvale, CA, USA). Melarsoprol (Arsobal Sanofi-Aventis, received from WHO) is used as control. • b. Activity against T. cruzi. Rat skeletal myoblasts (L-6 cells) were seeded in 96-well microtitre plates at 2000 cells/well in 100 µL RPMI 1640 medium with 10% FBS and 2 mM I-glutamine. After 24 h the medium was removed and replaced by 100 µl per well containing 5000 trypomastigote forms of T. cruzi Tulahuen strain C2C4 containing the β-galactosidase (Lac Z) gene (Buckner et al. 1996). After 48 h the medium was removed from the wells and replaced by 100 µl fresh medium with or without a serial drug dilution of eleven 3-fold dilution steps covering a range from 100 to 0.002 µg/ml. After 96 h of incubation the plates were inspected under an inverted microscope to assure growth of the controls and sterility. Then the substrate CPRG/Nonidet (50 µl) was added to all wells. A color reaction developed within 2-6 h and could be read photometrically at 540 nm. Data were analyzed with the graphic programme Softmax Pro (Molecular Devices), which calculated IC50 values by linear regression (Huber 1993) from the sigmoidal dose inhibition curves. […] Activity against L. donovani axenic amastigotes. Amastigotes of L. donovani strain MHOM/ET/67/L82 were grown in axenic culture at 37 °C in SM medium (Cunnigham et al. 1977) at pH 5.4 supplemented with 10% heat-inactivated fetal bovine serum under an atmosphere of 5% CO2 in air. One hundred microlitres of culture medium with 10^5 amastigotes from axenic culture with or without a serial drug dilution were seeded in 96-well microtitre plates. Serial drug dilutions of eleven 3-fold dilution steps covering a range from 90 to 0.002 µg/ml were prepared. After 70 h of incubation the plates were inspected under an inverted microscope to assure growth of the controls and sterile conditions. 10 µl of Alamar Blue (12.5 mg resazurin dissolved in 100 ml distilled water) (Mikus and Steverdig. 2000) were then added to each well and the plates incubated for another 2 h. Then the plates were read with a Spectramax Gemini XS microplate fluorometer (Molecular Devices Cooperation, Sunnyvale, CA, USA) using an excitation wave length of 536 nm and an emission wave length of 588 nm. Data were analyzed using the software Softmax Pro (Molecular Devices Cooperation, Sunnyvale, CA, USA). Decrease of fluorescence (= inhibition) was expressed as percentage of the fluorescence of control cultures and plotted against the drug concentrations. From the sigmoidal inhibition curves the IC50 values were calculated. • d.

[2] = CL=CathepsinL; 25 °C, pH 6.5, 6,25 µM substrate; read-out: CL(IC50)
[3] = read-out: CL(IC50); CL=CathepsinL; 25 °C, pH 6.5, 6,25 µM substrate

SMILES	CB(K2nd(M-1s-1)) (Cathepsin B (human)) [M⁻¹ s⁻¹]	IC50 (Cathepsin B (human)) [nM]	CL(K2nd(M-1s-1)) (Cathepsin L (human); CL=CathepsinL) [M⁻¹ s⁻¹]	IC50 (Cathepsin L (human); [2]) [nM]	FP2(K2nd(M-1s-1)) (Falcipain 2)	RD(K2nd(M-1s-1)) (Rhodesain) [M⁻¹ s⁻¹]	IC50 (Rhodesain) [nM]	IC50 (Cathepsin L (human); [3]) [nM]	CR(K2nd(M-1s-1)) (cruzain (CR)) [M⁻¹ s⁻¹]	IC50 (cruzain (CR)) [nM]	IC50 (Falcipain 2; 25 °C, pH 5.5, 25µM substrate) [nM]	IC50 ([1]; Leishmania donovani, 70 h, pH 5.4, replicate 2, axenic amastigotes, pH 5.4, 70 h, read-out: L.don. ax am IC50 repl2) [µg/mL]	L.don. ax am IC50 mean ([1]; mean of replicates)	L.don. ax am IC50 repl1 ([1]; replicate 1, axenic amastigotes, pH 5.4, 70 h)
CCOC(=O)/C=C/[C@@H](O)[C@H](CCc1ccccc1)NC(=O)[C@H](Cc1ccccc1)NC(=O)OCc1ccccc1	772	24000	1127	13000	557 M⁻¹ s⁻¹	3207	9500							
CCOC(=O)/C=C/[C@@H](O)[C@H](C)NC(=O)[C@H](Cc1ccccc1)NC(=O)OCc1ccccc1			828	14300	2,735 M-1s-1	10951	45100							
CCOC(=O)/C=C/C(=O)[C@H](C)NC(=O)[C@H](Cc1ccccc1)NC(=O)OCc1ccccc1	4738	140	197273		28285 M⁻¹ s⁻¹	6481	590	90	139583	290				
CCOC(=O)/C=C/C(=O)[C@H](C)NC(=O)[C@H](CC(C)C)NC(=O)OCc1ccccc1	85470	70	9821		12013 M⁻¹ s⁻¹	14207	800	550	14412	630	1180			
CCCCCCCCCCCCCCCCOP(=O)([O-])OCC[N+](C)(C)C [Miltefosine, reference compound]												0.071 (≈ 0.174 µM)	0,059 micrograms/mL and 1,44 micrograms/mL	0,046 micrograms/mL and 1,44 micrograms/mL
CCOC(=O)/C=C/C(=O)[C@H](CCc1ccccc1)NC(=O)[C@H](Cc1ccccc1)NC(=O)OCc1ccccc1 [drawing 38]	45486	70	45364	50	17099 M⁻¹ s⁻¹	1274510	30.7							
CCOC(=O)/C=C/C(=O)[C@H](CCc1ccccc1)NC(=O)[C@H](CC(C)C)NC(=O)OCc1ccccc1 [drawing 39]	42393	50	29885		6035 M⁻¹ s⁻¹	116147	145	257	60784	77				
